Structures can show the parent of a compound that is named as a salt. Where two headings read alike, the source gives them in different places.
How the values were obtained:
[1] = oxidizing, 5 h
[2] = for total impurities relative to the clopidogrel base: alkaline, 1N NaOH, 5 h
Description: 50 mg of the respective salts were separately weighed into volumetric flasks (100 ml), and 2 ml of 1N NaOH were added. The flasks were then stored either at room temperature for 5 h or at 80° C. for 5 h. After the end of the particular experiment and, where appropriate, cooling to room temperature, 2 ml of 1N HCl were added to each flask, and the volume was made up to 100 ml with the mobile phase.

[3] = acidic, 1N HCl, 5 h
[4] = neutral, water, 5 h
[5] = solid stored at 80° C. for 20 h
Description: 50 mg of the respective salts were weighed separately into volumetric flasks (100 ml) and stored at 80° C. for 20 h.

[6] = Decrease in active ingredient content of adsorbates on storage at 40° or 60° C. and 75% relative humidity for 15 days; assay type: physicochemical
Excerpt: The results are summarized in Table 5 below (content after 15 days (initial level standardized at 100%)).

[7] = 40° and 60° C., 75% relative humidity, 15 days
[8] = overall, in particular at room temperature
[9] = room temperature, hydrochloride

Row | Compound | total impurities relative to the clopidogrel base ([1]; 3% H2O2, 80° C.) [%] | total impurities relative to the clopidogrel base ([1]; 3% H2O2, room temperature) [%] | total impurities relative to the clopidogrel base ([2]; 80° C.) [%] | total impurities relative to the clopidogrel base ([2]; room temperature) [%] | total impurities relative to the clopidogrel base ([3]; 80° C.) [%] | total impurities relative to the clopidogrel base ([3]; room temperature) [%] | total impurities relative to the clopidogrel base ([4]; 80° C.) [%] | total impurities relative to the clopidogrel base ([4]; room temperature) [%] | impurities by HPLC after heat [5] [%] | further results
1 | COC(=O)[C@H](c1ccccc1Cl)N1CCc2sccc2C1 [Clopidogrel Hydrochloride, clopidogrel hydrochloride, reference compound] |  |  |  |  |  |  |  |  |  | total impurities relative to the clopidogrel base ([1]; 3% H2O2, 80° C., hydrochloride): 4.16%; total impurities relative to the clopidogrel base ([1]; 3% H2O2, room temperature, hydrochloride): 1.83%; total impurities relative to the clopidogrel base ([2]; 80° C., hydrochloride): 72.89%; total impurities relative to the clopidogrel base [2, 9]: 1.86%; total impurities relative to the clopidogrel base ([3]; 80° C., hydrochloride): 3.31%; total impurities relative to the clopidogrel base [3, 9]: 1.86%; total impurities relative to the clopidogrel base ([4]; 80° C., hydrochloride): 4.33%; total impurities relative to the clopidogrel base [4, 9]: 1.84%; impurities by HPLC after heat ([5]; hydrochloride): 32.43%
2 | COC(=O)[C@H](c1ccccc1Cl)N1CCc2sccc2C1 [Clopidogrel Hydrogensulfate, clopidogrel hydrogensulfate, reference compound] | 3.50 | 0.33 | 59.48 | 0.32 | 2.96 | 0.32 | 1.63 | 0.40 | 0.31 | 
3 | Clopidogrel besylate [Pure (free) salt] |  |  |  |  |  |  |  |  |  | content after 15 days (initial level standardized at 100%) ([6]; 40° C.): 103.32%; content after 15 days (initial level standardized at 100%) ([6]; 60° C.): 66.48%
4 | clopidogrel benzenesulfonate [Clopidogrel Benzenesulfonate (Amorphous)] | 2.94 | 0.83 | 25.04 | 0.64 | 2.36 | 0.64 | 3.01 | 0.85 | 11.52 | stability compared with the hydrogensulfate and hydrochloride salts ([2]; alkaline conditions): considerably higher
5 | clopidogrel benzenesulfonate [Clopidogrel Benzenesulfonate (Crystalline)] |  |  | 28.05 | 0.14 | 2.76 | 0.14 | 4.18 | 0.19 | 4.52 | stability (decrease in content) compared with hydrogensulfate and hydrochloride [7]: best stability; stability compared with clopidogrel hydrogensulfate [8]: more stable

Source: patent US20050203122A1, “Benzenesulfonic acid salts of clopidogrel, methods for preparing same, and pharmaceutical formulations thereof” (Helm AG, priority 2003, published 2005)
